Experiments:
APOL1 G2 [1] = target: T1, APOL1 G2 (Homo sapiens, UniProt O14791, DEL388-389); assay: APOL1 G2 FLIPR calcium influx assay (HEK T-REx/GCaMP6f/APOL1 G2 K6.3 cells); type: cell-based; conditions: HEK293 clone expressing GCaMP6f, doxycycline-induced APOL1 G2; prevention of calcium influx; geometric mean of at least 2 assay runs
T1 construct: expressed in transfected cells; host or cells: HEK293/T-REx APOL1 G2 clone #2, doxycycline-inducible
T1 sequence (O14791 with tags, fused parts or gaps DEL388-389): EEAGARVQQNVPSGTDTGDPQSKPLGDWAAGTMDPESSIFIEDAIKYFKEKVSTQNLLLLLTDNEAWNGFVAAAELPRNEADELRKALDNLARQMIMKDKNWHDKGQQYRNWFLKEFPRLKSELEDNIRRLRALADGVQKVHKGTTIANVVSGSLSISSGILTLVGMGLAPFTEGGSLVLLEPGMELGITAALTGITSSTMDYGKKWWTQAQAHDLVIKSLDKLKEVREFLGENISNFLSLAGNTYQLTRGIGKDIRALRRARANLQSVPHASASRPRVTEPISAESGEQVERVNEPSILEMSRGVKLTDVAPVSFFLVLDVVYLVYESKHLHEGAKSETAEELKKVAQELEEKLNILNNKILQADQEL
How it was run: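 HEK293 clone stably expressing GCaMP6f, APOL1 G2 induced with doxycycline for 6 h; compounds (duplicate 8-point dose response) preincubated 10 min at room temperature in Ca2+-free Tyrode's buffer, pH 7.4. Ca2+ added to 5 mM final, influx read on FLIPR; AC50 is geometric mean of ≥2 runs.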

APOL1 G2 [2] = target: T1, APOL1 G2; assay: APOL1 G2 HEK293 rescue of cell death caused by overexpression of APOL1 (CellTiter-Glo); type: cell-based; conditions: HEK293/T-REx APOL1 G2 clone #2, doxycycline induction, 17 hours, CellTiter-Glo luminescence; reversal of cell death; geometric mean of at least 2 assay runs
How it was run: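 Doxycycline (6 ng/mL)-induced HEK293/T-REx APOL1 G2 clone seeded at 5,000 cells/well with compound in duplicate 8-point 3-fold series (0.5% DMSO), 17 h at 37 °C. CellTiter-Glo luminescence; EC50 from four-parameter logistic fit, geometric mean of ≥2 runs.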

Row | AC50 (APOL1 G2 [1]) | Compound | EC50 (APOL1 G2 [2])
1 | 554 nM | C[C@@H]1C[C@H](COc2ccc(S(C)(=O)=O)nc2)CN1CCc1cc(C#N)cc(C#N)c1 [Compound 39, 5-{2-[(2R,4S)-4-{[(6-methanesulfonylpyridin-3-yl)oxy]methyl}-2-methylpyrrolidin-1-yl]ethyl}benzene-1,3-dicarbonitrile] | 121 nM
2 | 380 nM | CC(Cc1cc(Cl)cc(C#N)c1)N1C[C@@H](COc2ccc(S(C)(=O)=O)cc2)[C@H](C)C1 (stereo partly drawn) [Compound 17, 3-chloro-5-[2-[(3S,4S)-3-[(4-methanesulfonylphenoxy)methyl]-4-methylpyrrolidin-1-yl]propyl]benzonitrile] | 527 nM
3 | 1080 nM | C[C@@H]1C[C@H](COc2ccc(S(C)(=O)=O)cc2)CN1C1CCc2c(Cl)cccc2C1 (single isomer, unassigned) [Compound 138, (2R,4S)-1-[(2R or 2S)-5-chloro-1,2,3,4-tetrahydronaphthalen-2-yl]-4-[(4-methanesulfonylphenoxy)methyl]-2-methylpyrrolidine] | 149 nM
4 | 1280 nM | C[C@@H]1C[C@H](COc2ccc(S(C)(=O)=O)cc2)CN1C1CCc2c(C#N)cc(Cl)cc2C1 (single isomer, unassigned) [Compound 9, (6S or 6R)-3-chloro-6-[(2R,4S)-4-[(4-methanesulfonylphenoxy)methyl]-2-methylpyrrolidin-1-yl]-5,6,7,8-tetrahydronaphthalene-1-carbonitrile] | 516 nM
5 | 419 nM | CC(=O)N(C)CCS(=O)(=O)c1ccc(OC[C@@H]2CN(CCc3cc(Cl)cc(C#N)c3)C[C@H]2C)cc1 [Compound 75, N-[2-(4-{[(3S,4S)-1-[2-(3-chloro-5-cyanophenyl)ethyl]-4-methylpyrrolidin-3-yl]methoxy}benzenesulfonyl)ethyl]-N-methylacetamide] | 70.6 nM
6 | 601 nM | C[C@@H]1C[C@H](COc2ccc(S(C)(=O)=O)cc2)CN1C1CCc2c(C#N)cccc2C1 (single isomer, unassigned) [Compound 134, (6R or 6S)-6-[(2R,4S)-4-[(4-methanesulfonylphenoxy)methyl]-2-methylpyrrolidin-1-yl]-5,6,7,8-tetrahydronaphthalene-1-carbonitrile] | 292 nM
7 | 210 nM | C[C@@H]1C[C@H](COc2ccc(S(C)(=O)=O)nn2)CN1CCc1cccc(C#N)c1 [Compound 26, 3-{2-[(2R,4S)-4-{[(6-methanesulfonylpyridazin-3-yl)oxy]methyl}-2-methylpyrrolidin-1-yl]ethyl}benzonitrile] | 276 nM
8 | 948 nM | C[C@@H]1C[C@H](COc2ccc(S(=O)(=O)CCCS(C)(=O)=O)cc2)CN1C1CCc2ccc(C#N)cc2C1 (single isomer, unassigned) [Compound 35] | 256 nM
9 | 1150 nM | CS(=O)(=O)c1ccc(OC[C@@H]2CCCN(C3CCc4ccc(Cl)cc4C3)C2)cc1 (single isomer, unassigned) [Compound 133, (3R)-1-[(2R or 2S)-7-chloro-1,2,3,4-tetrahydronaphthalen-2-yl]-3-[(4-methanesulfonylphenoxy)methyl]piperidine] | 1910 nM
10 | 714 nM | C[C@@H]1C[C@H](COc2ccc(S(=O)(=O)CCO)cc2)CN1C1CCc2c(C#N)cc(Cl)cc2C1 (single isomer, unassigned) [Compound 56, (6R or 6S)-3-chloro-6-[(2R,4S)-4-{[4-(2-hydroxyethanesulfonyl)phenoxy]methyl}-2-methylpyrrolidin-1-yl]-5,6,7,8-tetrahydronaphthalene-1-carbonitrile] | 185 nM
11 | 265 nM | C[C@@H]1CN(CC(O)c2cccc(Cl)c2)C[C@H]1COc1ccc(S(C)(=O)=O)cc1 (single isomer, unassigned) [Compound 144, (1S) or (1R)-1-(3-chlorophenyl)-2-[trans-3-[(4-methanesulfonylphenoxy)methyl]-4-methylpyrrolidin-1-yl]ethan-1-ol] | 289 nM
12 | 351 nM | CN=S(C)(=O)c1ccc(OC[C@@H]2CN(CCc3cccc(C#N)c3)C[C@H]2C)cn1 (single isomer, unassigned) [Compound 73] | 375 nM
13 | 1140 nM | C[C@@H]1C[C@H](COc2ccc(S(C)(=O)=O)cc2)CN1C1Cc2ccc(Cl)cc2C1 (single isomer, unassigned) [Compound 4, (2R,4S)-1-[(2S or 2R)-5-chloro-2,3-dihydro-1H-inden-2-yl]-4-[(4-methanesulfonylphenoxy)methyl]-2-methylpyrrolidine] | 2350 nM
14 | 1380 nM | C[C@@H]1C[C@H](COc2ccc(S(=O)(=O)CCCS(C)(=O)=O)cc2)CN1C1CCc2c(C#N)cc(Cl)cc2C1 (single isomer, unassigned) [Compound 44, (6R or 6S)-3-chloro-6-[(2R,4S)-4-{[4-(3-methanesulfonylpropanesulfonyl)phenoxy]methyl}-2-methylpyrrolidin-1-yl]-5,6,7,8-tetrahydronaphthalene-1-carbonitrile] | 312 nM
15 | 140 nM | CS(=O)(=O)C1(c2ccc(OC[C@@H]3CN(CCc4cc(Cl)cc(C#N)c4)CCN3)cc2)CC1 [Compound 110, 3-chloro-5-{2-[(3S)-3-{[4-(1-methanesulfonylcyclopropyl)phenoxy]methyl}piperazin-1-yl]ethyl}benzonitrile] | 93.2 nM
16 | < 229 nM | CS(=O)(=O)c1ccc(OC[C@@H]2CCCN(C3CCc4ccc(Cl)cc4C3)C2)cc1 (stereo partly drawn) [Compound 131, (3R)-1-(7-chloro-1,2,3,4-tetrahydronaphthalen-2-yl)-3-[(4-methanesulfonylphenoxy)methyl]piperidine] | 994 nM
17 | 1080 nM | C[C@@H]1CN(C2CCc3ccc(Cl)cc3C2)C[C@H]1COc1ccc(S(C)(=O)=O)cc1 (single isomer, unassigned) [Compound 16, (3S,4S)-1-[(2R or 2S)-7-chloro-1,2,3,4-tetrahydronaphthalen-2-yl]-3-[(4-methanesulfonylphenoxy)methyl]-4-methylpyrrolidine] | 712 nM
18 | 1360 nM | C[C@@H]1C[C@H](COc2ccc(S(=O)(=O)CCCS(C)(=O)=O)cc2)CN1C1CCc2c(C#N)cc(Cl)cc2C1 (stereo partly drawn) [Compound 43, 3-chloro-6-[(2R,4S)-4-{[4-(3-methanesulfonylpropanesulfonyl)phenoxy]methyl}-2-methylpyrrolidin-1-yl]-5,6,7,8-tetrahydronaphthalene-1-carbonitrile] | 350 nM
19 | 201 nM | CS(=O)(=O)c1ccc(OCC2C[C@@H](CO)N(CCc3cccc(Cl)c3)C2)cc1 (single isomer, unassigned) [Compound 123, [(2S,4S or 4R)-1-[2-(3-chlorophenyl)ethyl]-4-[(4-methanesulfonylphenoxy)methyl]pyrrolidin-2-yl]methanol] | 393 nM
20 | 1260 nM | C[C@@H]1C[C@H](COc2ccc(S(C)(=O)=O)cc2)CN1C1CCc2c(Cl)cccc2C1 (single isomer, unassigned) [Compound 139, (2R,4S)-1-[(2S or 2R)-5-chloro-1,2,3,4-tetrahydronaphthalen-2-yl]-4-[(4-methanesulfonylphenoxy)methyl]-2-methylpyrrolidine] | 260 nM
21 | 769 nM | C[C@@H]1C[C@H](COc2ccc(S(=O)(=O)CCS(C)(=O)=O)cc2)CN1C1CCc2ccc(C#N)cc2C1 (single isomer, unassigned) [Compound 32] | 353 nM
22 | 876 nM | C[C@@H]1C[C@H](COc2ccc(S(=O)(=O)CCO)cc2)CN1C1CCc2c(C#N)cc(Cl)cc2C1 (stereo partly drawn) [Compound 55, 3-chloro-6-[(2R,4S)-4-{[4-(2-hydroxyethanesulfonyl)phenoxy]methyl}-2-methylpyrrolidin-1-yl]-5,6,7,8-tetrahydronaphthalene-1-carbonitrile] | 240 nM
23 | 392 nM | Cc1c(C#N)cc(Cl)cc1CCN1C[C@@H](CO)[C@H](COc2ccc(S(C)(=O)=O)cc2)C1 [Compound 23, 5-chloro-3-{2-[(3S,4S)-3-(hydroxymethyl)-4-[(4-methanesulfonylphenoxy)methyl]pyrrolidin-1-yl]ethyl}-2-methylbenzonitrile] | 309 nM
24 | 188 nM | Cc1cc(OC[C@H]2C[C@@H](C)N(CC(O)c3cccc(C#N)c3)C2)cnc1S(C)(=O)=O (single isomer, unassigned) [Compound 96, 3-[(1S or 1R)-1-hydroxy-2-[(2R,4S)-4-{[(6-methanesulfonyl-5-methylpyridin-3-yl)oxy]methyl}-2-methylpyrrolidin-1-yl]ethyl]benzonitrile] | 27.7 nM
25 | 746 nM | CC(=O)N1CC(S(=O)(=O)c2ccc(OC[C@@H]3CN(CCc4cccc(Cl)c4)CCN3)cc2)C1 [Compound 109, 1-[3-(4-{[(2S)-4-[2-(3-chlorophenyl)ethyl]piperazin-2-yl]methoxy}benzenesulfonyl)azetidin-1-yl]ethan-1-one] | 224 nM
